Measurements as given in patent US11214803B2, “Modulators of YAP1 expression” (Ionis Pharmaceuticals, Inc., priority 2019, dated 2022).
Strand notation (5' to 3'): a small letter for the sugar, then the base; units joined by * are phosphorothioate-linked, units joined directly phosphodiester-linked; [ ] holds rarer units or linkages, { } end groups; capitals alone tell only the bases. k = constrained ethyl (cEt); [5mC] = 5-methylcytosine; d = 2'-deoxy (DNA)

System: Yap1 mRNA
Assay: Antisense inhibition of human Yap1 in A-431 cells by cEt gapmers, single dose (Example 2, RTS4814)
Type: cell-based
Method in brief: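 Read-out is Yap1 mRNA as percent of untreated cells, by real-time RT-PCR (probe set RTS4814) normalized to total RNA via RIBOGREEN. Cells were A-431 dosed with 2,000 nM gapmer without transfection for approximately 48 hours.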

[1] = Table 20, Yap1 mRNA, percent of untreated control, 3-10-3 cEt gapmers targeting SEQ ID NO.: 1 and 2
[2] = Table 23, Yap1 mRNA as percent of untreated control, 3-10-3 cEt gapmers, single dose
[3] = Table 5, A-431 cells, 5,000 cells per well, free uptake, 2,000 nM modified oligonucleotide, approx. 48 hours, RTS4814, normalized to RIBOGREEN, Yap1 mRNA relative to untreated control cells
[4] = Yap1 mRNA as percent of untreated control, A-431 cells, 3-10-3 cEt gapmers targeting SEQ ID NO.: 1, and 2, Table 30
[5] = Table 21, Yap1 mRNA, percent of untreated control, 3-10-3 cEt gapmers targeting SEQ ID NO.: 1 and 2
[6] = Table 18, A-431 cells, 5,000 cells per well, free uptake, 2,000 nM modified oligonucleotide, approx. 48 hours, RTS4814, normalized to RIBOGREEN, Yap1 mRNA as percent of untreated control
[7] = Yap1 mRNA as percent of untreated control, A-431 cells, 3-10-3 cEt gapmers targeting SEQ ID NO.: 1, and 2, Table 31
[8] = Table 19, A-431 cells, 5,000 cells per well, free uptake, 2,000 nM modified oligonucleotide, approx. 48 hours, RTS4814, normalized to RIBOGREEN, Yap1 mRNA as percent of untreated control
[9] = Table 25, Yap1 mRNA as percent of untreated control, 3-10-3 cEt gapmers targeting SEQ ID NO.: 1, and 2
[10] = Table 6, A-431 cells, 5,000 cells per well, free uptake, 2,000 nM modified oligonucleotide, approx. 48 hours, RTS4814, normalized to RIBOGREEN, Yap1 mRNA relative to untreated control cells
[11] = Table 22, Yap1 mRNA as percent of untreated control, 3-10-3 cEt gapmers, single dose

With “1075846 (kG*kA*kT*dT*dA*dA*dG*dA*dG*d[5mC]*d[5mC]*dT*dA*kT*k[5mC]*kT; antisense) [Compound 1075846]” the “YAP1 (% UTC)” value [1] was 96 % UTC.

“1075625 (kA*kA*kT*d[5mC]*dT*dA*dT*dA*dA*d[5mC]*d[5mC]*d[5mC]*dT*kT*kA*kT; antisense) [Compound 1075625]” was tested, and the “YAP1 (% UTC)” value [2] was 49 % UTC.

In the case of “716356 (k[5mC]*kG*kA*dG*dG*dT*dG*dG*dA*dG*dA*dA*dG*k[5mC]*kG*kG; antisense) [Compound 716356]”, the “YAP1 (% UTC)” value [3] is reported as 112 % UTC.

With “1075632 (antisense kT*k[5mC]*k[5mC]*d[5mC]*dT*dA*dT*dA*dA*d[5mC]*d[5mC]*dA*dA*kA*kT*kG) [compound 1075632]” the “YAP1 (% UTC)” value [4] was 95 % UTC.

In the case of “1076391 (k[5mC]*kA*kA*dA*dT*dA*dT*dA*dG*dT*dT*dA*dG*k[5mC]*k[5mC]*kT; antisense) [Compound 1076391]”, the “YAP1 (% UTC)” value [5] is reported as 22 % UTC.

In the case of “1075878 (kG*kA*kT*dT*dA*dT*d[5mC]*dA*dA*dG*dT*dA*dG*kT*kT*kT; antisense) [Compound 1075878]”, the “YAP1 (% UTC)” value [1] is reported as 35 % UTC.

In the case of “716563 (kT*kG*kA*dA*dG*d[5mC]*dA*dA*dG*dT*dT*d[5mC]*dT*k[5mC]*kA*kA; antisense) [Compound 716563]”, the “YAP1 (% UTC)” value [3] is reported as 126 % UTC.

For “1074832 (kG*k[5mC]*kG*dA*dG*dG*dA*dT*dA*dA*dA*dA*dT*k[5mC]*k[5mC]*kA; antisense) [compound 1074832]”, the “YAP1 (% UTC)” value [4] was 17 % UTC.

For “1076196 (kT*kA*kT*d[5mC]*dA*dA*dG*dG*dG*dA*dA*dT*dT*kA*kT*kT; antisense) [Compound 1076196]”, the “YAP1 (% UTC)” value [6] was 113 % UTC.

In the case of “716379 (k[5mC]*k[5mC]*kA*dG*dA*dA*dG*dA*dT*dG*dT*d[5mC]*dT*kT*kT*kG; antisense) [Compound 716379]”, the “YAP1 (% UTC)” value (A-431 cells, 5,000 cells per well, free uptake, 2,000 nM modified oligonucleotide, approx. 48 hours, RTS4814, normalized to RIBOGREEN, Table 4, asterisk (*) = targets amplicon region of primer probe set) is reported as 123 % UTC.

In the case of “1076294 (kT*kA*kT*dA*dT*dT*dA*dG*dT*dG*d[5mC]*d[5mC]*d[5mC]*k[5mC]*k[5mC]*kT; antisense) [Compound 1076294]”, the “YAP1 (% UTC)” value [1] is reported as 6 % UTC.

With “1075689 (k[5mC]*kA*kA*d[5mC]*dT*dA*dT*dA*d[5mC]*dA*dA*dG*dG*k[5mC]*kA*kA; antisense) [Compound 1075689]” the “YAP1 (% UTC)” value [2] was 4 % UTC.

For “716392 (k[5mC]*kT*kG*d[5mC]*d[5mC]*dA*d[5mC]*d[5mC]*d[5mC]*dA*dT*dG*dA*k[5mC]*kG*k[5mC]; antisense) [Compound 716392]”, the “YAP1 (% UTC)” value [3] was 95 % UTC.

“1076306 (k[5mC]*kT*kT*dT*dA*d[5mC]*dT*dA*d[5mC]*dT*dA*dA*dT*kA*kA*kG; antisense) [compound 1076306]” was tested, and the “YAP1 (% UTC)” value (Table 32, Yap1 mRNA, percent of untreated control, 3-10-3 cEt gapmers targeting SEQ ID NO.: 1, and 2) was 99 % UTC.

In the case of “1076266 (kA*kT*kT*dA*dT*dT*dA*d[5mC]*d[5mC]*d[5mC]*dA*dA*dT*kA*kA*k[5mC]; antisense) [Compound 1076266]”, the “YAP1 (% UTC)” value (Table 24, Yap1 mRNA as percent of untreated control, 3-10-3 cEt gapmers targeting SEQ ID NO.: 1, and 2) is reported as 72 % UTC.

In the case of “1075921 (antisense kG*kA*kA*dA*dG*dA*dA*dA*dG*d[5mC]*dT*dG*d[5mC]*kG*k[5mC]*kA) [compound 1075921]”, the “YAP1 (% UTC)” value [7] is reported as 93 % UTC.

For “1075472 (kG*kA*kT*dT*dA*dT*dA*dG*dT*dT*dA*dA*dA*k[5mC]*kA*kG; antisense) [compound 1075472]”, the “YAP1 (% UTC)” value [4] was 92 % UTC.

In the case of “1075204 (antisense kG*kT*kT*dA*dA*dA*d[5mC]*dA*d[5mC]*dA*dT*d[5mC]*dT*k[5mC]*kA*kG) [Compound 1075204]”, the “YAP1 (% UTC)” value [6] is reported as 43 % UTC.

With “1075557 (kT*kA*kT*dT*dA*dA*dG*dG*dT*dG*dG*d[5mC]*dT*kT*kA*k[5mC]; antisense) [Compound 1075557]” the “YAP1 (% UTC)” value [8] was 57 % UTC.

With “1076553 (antisense kT*kG*kG*dG*dA*dA*dT*dA*dA*dT*dT*dT*dG*kG*k[5mC]*k[5mC]) [Compound 1076553]” the “YAP1 (% UTC)” value [2] was 69 % UTC.

“1075787 (k[5mC]*kT*kT*dA*dA*dG*dG*dA*dT*dT*dG*dG*d[5mC]*kT*kA*kT; antisense) [Compound 1075787]” was tested, and the “YAP1 (% UTC)” value [9] was 28 % UTC.

For “1076100 (kA*kA*kT*dA*dA*dG*dG*dG*dA*d[5mC]*dT*dA*d[5mC]*kT*kT*kT; antisense) [Compound 1076100]”, the “YAP1 (% UTC)” value [6] was 65 % UTC.

“716369 (k[5mC]*kG*kG*d[5mC]*dG*dG*d[5mC]*dT*dT*dG*dA*dA*dG*kA*kA*kG; antisense) [Compound 716369]” was tested, and the “YAP1 (% UTC)” value [10] was 94 % UTC.

In the case of “1075780 (kT*kA*kT*dA*dA*dT*dA*dA*dT*d[5mC]*d[5mC]*dA*dG*kA*kA*k[5mC]; antisense) [Compound 1075780]”, the “YAP1 (% UTC)” value [6] is reported as 98 % UTC.

With “1075083 (antisense k[5mC]*kA*kA*d[5mC]*dA*dA*d[5mC]*dA*d[5mC]*dT*d[5mC]*d[5mC]*dT*k[5mC]*kT*kT) [Compound 1075083]” the “YAP1 (% UTC)” value [9] was 54 % UTC.

In the case of “716414 (kG*kT*kT*d[5mC]*dA*dT*dT*d[5mC]*d[5mC]*dA*dT*d[5mC]*dT*k[5mC]*k[5mC]*kT; antisense) [Compound 716414]”, the “YAP1 (% UTC)” value [10] is reported as 59 % UTC.

With “1075240 (antisense kT*kA*kA*dA*d[5mC]*dG*dG*dT*dT*dT*dA*dT*dA*kT*kT*k[5mC]) [Compound 1075240]” the “YAP1 (% UTC)” value [11] was 16 % UTC.

In the case of “1075461 (antisense k[5mC]*kT*kA*dA*dA*dT*dA*dA*d[5mC]*d[5mC]*dA*dA*dG*kG*kA*kT) [Compound 1075461]”, the “YAP1 (% UTC)” value [8] is reported as 64 % UTC.

For “1076265 (kT*kA*kT*dT*dA*d[5mC]*d[5mC]*d[5mC]*dA*dA*dT*dA*dA*k[5mC]*k[5mC]*kA; antisense) [Compound 1076265]”, the “YAP1 (% UTC)” value [2] was 9 % UTC.

With “1074739 (kG*kA*k[5mC]*dT*d[5mC]*dT*dT*dA*dG*dG*dT*d[5mC]*dT*k[5mC]*k[5mC]*kT; antisense) [compound 1074739]” the “YAP1 (% UTC)” value (Table 33, Yap1 mRNA, percent of untreated control, 3-10-3 cEt gapmers targeting SEQ ID NO.: 1, and 2) was 24 % UTC.

In the case of “716459 (k[5mC]*kG*k[5mC]*dT*dA*d[5mC]*d[5mC]*dA*dT*dT*dT*dT*dA*kA*kA*kA; antisense) [Compound 716459]”, the “YAP1 (% UTC)” value [10] is reported as 121 % UTC.

“1075748 (kG*kT*kA*dA*dA*dT*d[5mC]*dA*dA*dG*dT*dT*dG*k[5mC]*kA*kT; antisense) [Compound 1075748]” was tested, and the “YAP1 (% UTC)” value [6] was 7 % UTC.

In the case of “716387 (kT*kA*kT*dG*dG*dT*dT*dT*dA*dT*dA*dT*dA*kG*kT*kA; antisense) [Compound 716387]”, the “YAP1 (% UTC)” value [10] is reported as 33 % UTC.

For “1074151 (antisense kG*kG*kG*d[5mC]*d[5mC]*dG*dA*dG*dG*dT*dG*dG*dA*kG*kA*kA) [Compound 1074151]”, the “YAP1 (% UTC)” value [5] was 81 % UTC.

In the case of “1076241 (k[5mC]*kA*kA*dT*dA*dA*dG*dG*dA*dA*d[5mC]*dA*dG*kT*kT*kT; antisense) [compound 1076241]”, the “YAP1 (% UTC)” value [7] is reported as 42 % UTC.

With “1074597 (antisense kA*kG*kT*dA*dT*dT*d[5mC]*dT*dA*dT*d[5mC]*d[5mC]*dA*kG*kG*kG) [Compound 1074597]” the “YAP1 (% UTC)” value [8] was 5 % UTC.

“716482 (k[5mC]*kT*kA*dT*d[5mC]*d[5mC]*dA*dG*dG*dG*dT*d[5mC]*dA*kA*kT*kT; antisense) [Compound 716482]” was tested, and the “YAP1 (% UTC)” value [3] was 83 % UTC.

For “1075408 (antisense k[5mC]*kT*kA*dA*dA*dA*dT*dG*dG*d[5mC]*dA*dT*dA*kA*kG*kG) [compound 1075408]”, the “YAP1 (% UTC)” value [4] was 23 % UTC.

“1074982 (antisense kA*k[5mC]*k[5mC]*dT*dT*dT*dT*dA*dT*dT*dG*d[5mC]*d[5mC]*kA*kG*kT) [Compound 1074982]” was tested, and the “YAP1 (% UTC)” value [1] was 13 % UTC.

For “1075880 (kA*kT*kT*dA*dA*d[5mC]*dT*dA*d[5mC]*dA*d[5mC]*d[5mC]*dA*k[5mC]*kG*kA; antisense) [Compound 1075880]”, the “YAP1 (% UTC)” value [11] was 30 % UTC.

For “1074182 (antisense kG*k[5mC]*k[5mC]*d[5mC]*dG*dG*dG*dA*dT*d[5mC]*d[5mC]*dA*dT*kG*kG*k[5mC]) [Compound 1074182]”, the “YAP1 (% UTC)” value [1] was 82 % UTC.

For “716576 (kT*kG*kT*d[5mC]*dA*dG*dT*dT*dA*dT*d[5mC]*d[5mC]*dT*kA*kT*k[5mC]; antisense) [Compound 716576]”, the “YAP1 (% UTC)” value [10] was 52 % UTC.
